Experiment: Injection of alcian blue solution at the lowest electric resistance point near Jung-Wan, arrival at pancreas observed by stereoscopic microscope
Format: in vivo
Conditions: hairless mouse, subcutaneous tissue near Jung-Wan, 0.1 μl a minute for 2 to 3 hours
Procedure: For laboratory animals, the hairless mouse (males, about 6 weeks old) supplied from the JungAng Laboratory Animal Company were used. The laboratory animals were managed in a breeding cage with temperature of 23° C. and 60% relative humidity under 12 hour light/dark cycles and supplied with food and water for ad libitum access.
The hairless mouse living in the above environment was anaesthetized by administering 1.5 g/kg of urethane, and all of the surgical procedures were performed under anesthesia. The hairless mouse under anesthesia were placed on the operating table under the stereoscopic microscope (Olympus SZX12) connected with the computer and the CCD camera.
Jung-Wan was determined at the middle of the umbilicus and the xiphoid process-sternum junction (JungJeong, one of acupuncture points) along the linea alba of the hairless mouse according to “GolDo method”, which is a method of finding acupuncture points by using its unique measuring units. After Jung-Wan was determined, the point having the lowest electric resistance was found within a radius of 2 mm from Jung-Wan by using the electro acupuncture point detector (Hamtech Korea Co., YNS202-S) and determined as the point into which an alcian blue solution would be injected. […]

alcian blue [alcian blue solution]
distribution of the visualizing material in internal organs after injection: dispersed into the threadlike structures penetrating out through the surface of the pancreas

Source: patent US8057783B2, “Method of injecting liquid agents at acupuncture points to arrive internal organs and method of visualizing arrival of liquid agents” (Seoul National University Industry Foundation, priority 2007, dated 2011)
